Values joined by “and” are separate entries in the source; they are usually repeats but may differ in a detail not shown here. Equal values may be shown once. “Also recorded” adds a separate entry of the source.
How the values were obtained:
Format in all cases: cell-based, rat
[1] = test system: PASMCs; test: Basal intracellular Ca2+ concentration in PASMCs (Fura-2); settings: for basal [Ca^2+]i, Treatment: 100 μM, after 10 min of perfusion; for effect on resting [Ca^2+]i: 10-100 μM; for basal [Ca^2+]i, Baseline: before perfusion with the compound
Description: (§1) Intrapulmonary arteries (200-600 μm o.d.) were isolated from male Wistar rats (250-350 g) and cleaned of connective tissue. After the lumen was gently rubbed with a cotton swab to remove the endothelial cells, the arteries were allowed to recover for 30 minutes in cold (4° C.) HBSS containing (in mM): 130 NaCl, 5 KCl, 1.2 MgCl2, 1.5 CaCl2, 10 N-[2-hydroxyethyl]piperazine-N′-[2-ethanesulfonic acid] (HEPES) and 10 glucose, with pH adjusted to 7.2 with 5 M NaOH, followed by 20 minutes in reduced-Ca^2+ (20 μM CaCl2) HBSS at room temperature. […] Following digestion, single smooth muscle cells were dispersed by gentle trituration with a wide-bore transfer pipette in Ca^2+-free HBSS and the cell suspension was placed on 25 mm glass cover slips. PASMCs were transiently cultured in Ham's-F-12 media supplemented with 0.5% fetal bovine serum and 1% penicillin/streptomycin for 24-48 hrs. before study.
(§2) Acute hypoxia increases intracellular [Ca^2+] in pulmonary arterial smooth muscle by enhancing capacitative Ca^2+ entry. […] Ratiometric measurement of fluorescence from the dye was performed on a workstation (Intracellular Imaging Inc, Cincinnati, Ohio) consisting of a Nikon TSE 100 Ellipse inverted microscope with epi-fluorescence attachments. The light beam from a xenon arc lamp was filtered at 340 and 380 nm, and focused onto the PASMCS under examination via a 20× fluorescence objective (Super Fluor 20, Nikon). Light emitted from the cell at 510 nm was returned through the objective and detected by a cooled CCD imaging camera. An electronic shutter (Sutter Instruments) was used to minimize photobleaching of dye. Protocols were executed and data collected on-line with InCyte software (Intracellular Imaging Inc). [Ca^2+]i was estimated from in vitro calibration solutions.

[2] = test system: PASMCs; test: Hypoxia-induced increase in [Ca2+]i in PASMCs (4% O2); settings: 10-100 μM
Description: as §1, §2

[3] = test system: PASMCs; test: Intracellular pH (pHi) in PASMCs (BCECF-AM); settings: for basal pHi, Baseline: before the compound
Description: The method for obtaining single PASMCs has been described previously in Shimoda L. A., et al., Am J Physiol 274: 842-853 (1998), which is hereby incorporated by reference in its entirety. Intrapulmonary arteries (200-600 μm o.d.) were isolated from male Wistar rats (250-350 g) and cleaned of connective tissue. After the lumen was gently rubbed with a cotton swab to remove the endothelial cells, the arteries were allowed to recover for 30 minutes in cold (4° C.) HBSS containing (in mM): 130 NaCl, 5 KCl, 1.2 MgCl2, 1.5 CaCl2, 10 N-[2-hydroxyethyl]piperazine-N′-[2-ethanesulfonic acid] (HEPES) and 10 glucose, with pH adjusted to 7.2 with 5 M NaOH, followed by 20 minutes in reduced-Ca^2+ (20 μM CaCl2) HBSS at room temperature. The tissue was enzymatically digested in reduced-Ca^2+ HBSS containing collagenase (type I; 1750 U/ml), papain (9.5 U/ml), bovine serum albumin (2 mg/ml) and dithiothreitol (1 mM) at 37° C. for 20 minutes. Following digestion, single smooth muscle cells were dispersed by gentle trituration with a wide-bore transfer pipette in Ca^2+-free HBSS and the cell suspension was placed on 25 mm glass cover slips. PASMCs were transiently cultured in Ham's-F-12 media supplemented with 0.5% fetal bovine serum and 1% penicillin/streptomycin for 24-48 hrs. before study.
pHi within PASMCs was monitored using the cell permeant pH sensitive dye 2′,7′-bis(carboxyethyl)-5(6)-carboxyflourescein (BCECF-AM). Cells were incubated with BCECF-AM for 60 min at 37° C. under an atmosphere of 21% O2-5% CO2. Cells were then washed with Kreb's solution for 15 min at 37° C. to remove extracellular dye and allow complete de-esterification of cytosolic dye. Cells were excited with light at 490 and 440 nm and light emitted from the cells was detected at 530 nm. The ratio of 490 to 440 nm emission was calculated and converted into pH values by performing a calibration curve after each experiment. PASMCs were subjected to a high K^+ buffer containing 10 μM nigericin, which allowed the cell to adopt the pH of the high K^+ buffer. Two high K^+/nigericin buffers were used to set pH to 6.5 or 7.5, pHi was estimated from in situ calibration after each experiment. Cells were perfused with a solution containing (in mM): 105 KCl, 1 MgCl2, 1.5 CaCl2, 10 glucose, 20 HEPES-Tris and 0.01 nigericin to allow pHi to equilibrate to external pH as in Quinn D. A., et al., Am J Respir Cell Mol Biol 5: 586-591 (1991), which is hereby incorporated by reference in its entirety. A two point calibration was created from fluorescence measured as pHi was adjusted with KOH from 6.5 to 7.5. Intracellular H^+ ion concentration ([H^+]i) was determined from pHi using the formula: pHi=−log ([H^+]i).

Compound | basal [Ca^2+]i, Treatment [1] | effect on resting [Ca^2+]i [1] | basal [Ca^2+]i, Baseline [1] [nM] | effect on hypoxia-induced increase in [Ca^2+]i [2] | effect on hypoxia-induced increase in [Ca^2+]i ([2]; listed as EF) | basal pHi, Treatment ([3]; 100 μM) | effect on basal pHi ([3]; 100 μM) | basal pHi, Baseline [3] | effect of hypoxia on pHi in treated cells ([3]; 100 μM, 4% O2) | pHi after hypoxia in pretreated PASMCs ([3]; 100 μM, 4% O2)
CCOc1ccc2nc(S(N)(=O)=O)sc2c1 [EZ, ethoxzolamide] | 122.5 ± 6.3 nM | neither EZ nor BZ altered | 125.5 ± 7.1 | no effect | neither EF (FIG. 5) nor BZ (FIG. 6) had a significant effect | 7.19 ± 0.04 | significant decrease | 7.28 ± 0.04 | – | –
NS(=O)(=O)c1nnc(NS(=O)(=O)c2ccccc2)s1 [BZ, benzolamide] | 120.7 ± 7.7 nM | neither EZ nor BZ altered | 113.4 ± 7.4 | no effect; also recorded: neither EF (FIG. 5) nor BZ (FIG. 6) had a significant effect | – | 7.25 ± 0.03 | significant decrease | 7.31 ± 0.02 | – | –
CC(=O)Nc1nnc(S(N)(=O)=O)s1 [AZ, acetazolamide] | 150.0 ± 9.6 nM and 155.0 ± 9.6 nM | no effect | 159.6 ± 10.8 | almost complete blockade; also recorded: significant reduction | – | – | small decrease | 7.26±0.02 | no effect | 7.24±0.03

From patent publication US8614236B2 (University of Washington, priority 2006, dated 2013)
